From ChEMBL document CHEMBL6127101, “Wee1 inhibitor optimization through deep-learning-driven decision making” (Eur J Med Chem, 2024)

Tests used:
[1] = target: Wee1-like protein kinase (Homo sapiens, UniProt P30291); test: Inhibition of Wee-1 (unknown origin) using Poly-Lys Tyr as substrate incubated for 60 mins in presence of ATP by ADP-Glo Kinase assay
[2] = system: NCI-H446; test: Inhibition of cell viability of human NCI-H446 cells incubated for 72 hrs by Cell Titer-Glo assay; settings: NCI-H446, 72 h
[3] = system: WiDr; test: Inhibition of cell viability of human WiDr cells incubated for 72 hrs by Cell Titer-Glo assay; type: functional, cell-based
[4] = system: C-33-A; test: Inhibition of cell viability of human C-33-A cells incubated for 72 hrs by Cell Titer-Glo assay; type: functional, cell-based
[5] = system: OVCAR-3; test: Inhibition of cell viability of human OVCAR-3 cells incubated for 72 hrs by Cell Titer-Glo assay; type: functional, cell-based; settings: OVCAR-3, 72 h
[6] = system: A-427; test: Inhibition of cell viability of human A-427 cells incubated for 72 hrs by Cell Titer-Glo assay; type: functional, cell-based; settings: A-427, 72 h
[7] = system: C-33-A; test: Inhibition of cell viability of human C-33-A cells incubated for 72 hrs by Cell Titer-Glo assay relative to control; type: functional

Wee1-like protein kinase, sequence (P30291 whole entry): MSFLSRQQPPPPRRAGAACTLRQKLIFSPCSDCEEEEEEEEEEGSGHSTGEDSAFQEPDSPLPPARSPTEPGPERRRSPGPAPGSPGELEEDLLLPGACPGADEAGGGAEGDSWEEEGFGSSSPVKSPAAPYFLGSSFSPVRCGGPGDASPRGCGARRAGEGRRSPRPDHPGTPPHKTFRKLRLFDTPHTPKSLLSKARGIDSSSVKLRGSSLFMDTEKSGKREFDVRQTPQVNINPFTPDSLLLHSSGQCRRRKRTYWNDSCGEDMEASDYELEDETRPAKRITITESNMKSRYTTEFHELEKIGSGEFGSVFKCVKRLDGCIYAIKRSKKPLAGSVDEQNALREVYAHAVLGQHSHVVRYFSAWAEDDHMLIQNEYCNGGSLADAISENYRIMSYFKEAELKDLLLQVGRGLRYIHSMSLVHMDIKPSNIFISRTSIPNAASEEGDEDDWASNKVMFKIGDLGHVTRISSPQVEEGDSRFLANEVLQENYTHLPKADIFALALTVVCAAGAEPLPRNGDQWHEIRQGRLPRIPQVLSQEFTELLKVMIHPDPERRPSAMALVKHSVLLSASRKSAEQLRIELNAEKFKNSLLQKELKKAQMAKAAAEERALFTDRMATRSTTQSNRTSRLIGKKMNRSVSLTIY

| Compound | IC50 [1] [nM] | IC50 [2] [nM] | IC50 [3] [nM] | IC50 [4] [nM] | IC50 [5] [nM] | IC50 [6] [nM] | inhibition (INH) [7] [%] |
| --- | --- | --- | --- | --- | --- | --- | --- |
| CC1(N)CCN(c2ccc(Nc3ncc(-c4cnco4)c(-c4cc(N5CC[C@H](N)C5)ns4)n3)cc2)CC1 | 47.1 | > 10000 | – | – | – | – | – |
| CN1CCN(c2ccc(Nc3ncc(-c4cncs4)c(-c4cc5ccccc5o4)n3)cc2)CC1 | 2.3 | 1160 | 855 | 458 | 736 | 463 | – |
| CC1(N)CCN(c2ccc(Nc3ncc(-c4cnco4)c(-c4cc5ccc(CO)cc5o4)n3)cc2)CC1 | 13.5 | – | – | – | – | – | – |
| COc1cc(Nc2ncc(-c3cnco3)c(-c3cnc(N4CC[C@H](O)C4)s3)n2)ccc1N1CCN(C)CC1 | 22.4 | 1410 | 1470 | 410 | 1840 | 589 | – |
| COc1cc(Nc2ncc(-c3cncs3)c(-c3cnc(N4CC(O)C4)s3)n2)ccc1N1CCN(C)CC1 | 3.7 | 313 | 415 | 105 | 252 | 163 | – |
| CN1CCN(c2ccc(Nc3ncc(-c4cncs4)c(-c4cnc(N5CC[C@H](O)C5)s4)n3)cc2)CC1 | 4.2 | 540 | 1110 | 167 | 430 | 362 | – |
| COc1cc(Nc2ncc(-c3cncs3)c(-c3cnc(N4CC[C@H](O)C4)s3)n2)ccc1N1CCN(C)CC1 | 2 | 417 | 538 | 99.5 | 229 | 152 | – |
| CN1CCN(c2ccc(Nc3ncc(-c4cncs4)c(-c4cnc(N5CC[C@H](F)C5)s4)n3)cc2)CC1 | 1.8 | 150 | 203 | – | 161 | 98.2 | 43.6 |
| COc1cc(Nc2ncc(-c3cncs3)c(-c3cc4ccccc4o3)n2)ccc1N1CCN(C)CC1 | 1.9 | 2040 | – | – | – | – | – |
| CC1(N)CCN(c2ccc(Nc3ncc(-c4cnco4)c(-c4cc5ccccc5o4)n3)cc2)CC1 | 13.5 | 709 | – | – | 1500 | 1450 | – |
| CC1(N)CCN(c2ccc(Nc3ncc(-c4cnco4)c(-c4cccc(C(C)(C)O)c4)n3)cc2)CC1 | 158 | – | – | – | – | – | – |
| CC1(N)CCN(c2ccc(Nc3ncc(-c4cnco4)c(-c4cnc(N5CC(O)C5)s4)n3)cc2)CC1 | 33.7 | – | – | – | – | – | – |
| COc1cc(Nc2ncc(-c3cncs3)c(-c3cnc(N4CC[C@H](F)C4)s3)n2)ccc1N1CCN(C)CC1 | 2 | 93.9 | 85 | 23.1 | 86.7 | 34.5 | – |
| Cc1cc(-c2ccnc(-c3nc(Nc4ccc(N5CCC(C)(N)CC5)cc4)ncc3-c3cnco3)c2)n[nH]1 | 895 | – | – | – | – | – | – |
| CN1CCN(c2ccc(Nc3ncc(-c4cnco4)c(-c4cnc(N5CC[C@H](F)C5)s4)n3)cc2)CC1 | 3.6 | 562 | 423 | 130 | 414 | 211 | – |
| CC1(N)CCN(c2ccc(Nc3ncc(-c4cnco4)c(-c4snc(N5CCC(N)C5)c4F)n3)cc2)CC1 (stereo not given) | 47.1 | – | – | – | – | – | – |
| CN1CCN(c2ccc(Nc3ncc(-c4cncs4)c(-c4cnc(N5CC(O)C5)s4)n3)cc2)CC1 | 3.6 | 622 | 1020 | 277 | 352 | 369 | – |
| COc1cc(Nc2ncc(-c3cnco3)c(-c3cnc(N4CC[C@H](F)C4)s3)n2)ccc1N1CCN(C)CC1 | 2.5 | 300 | 186 | 62.6 | 212 | 115 | – |
| CN1CCN(c2ccc(Nc3ncc(-c4cnco4)c(-c4cnc(N5CC[C@H](O)C5)s4)n3)cc2)CC1 | 20.9 | 1660 | 2170 | 527 | 2110 | 565 | – |
| C=CCn1c(=O)c2cnc(Nc3ccc(N4CCN(C)CC4)cc3)nc2n1-c1ccc2c(n1)[C@@](O)(CC)CC2 [AZENOSERTIB] | 1.3 | 250 | 256 | 382 | 245 | 371 | – |
